Experimental data as given in ChEMBL document CHEMBL5385875, “Tumor killing by a dietary curcumin mono-carbonyl analog that works as a selective ROS generator via TrxR inhibition” (Eur J Med Chem, 2023).
Calls of active or inactive are those of the source. No cut-off for these calls is given here.

What was measured:
NCI-H460 [1] = experiment: Cytotoxicity against human NCI-H460 cells assessed as reduction in cell viability incubated for 48 hrs by MTT assay; assay type: functional, cell-based; conditions: NCI-H460, 48 h
A549 = experiment: Cytotoxicity against human A549 cells assessed as reduction in cell viability incubated for 48 hrs by MTT assay; assay type: functional, cell-based; conditions: A549, 48 h
HepG2 = experiment: Cytotoxicity against human HepG2 cells assessed as reduction in cell viability incubated for 48 hrs by MTT assay; assay type: functional, cell-based; conditions: HepG2, 48 h
HT-1080 = experiment: Cytotoxicity against human HT-1080 cells assessed as reduction in cell viability incubated for 48 hrs by MTT assay; assay type: functional, cell-based; conditions: HT-1080, 48 h
[2] = Cytotoxicity against human MRC5 cells assessed as reduction in cell viability incubated for 48 hrs by MTT assay; assay type: toxicity, cell-based
[3] = Selectivity index, ratio of IC50 for human MRC5 cells to IC50 for human NCI-H460 cells; assay type: toxicity; conditions: MRC5 cells versus NCI-H460 cells, read-out: Ratio IC50
NCI-H460 [4] = experiment: Induction of intracellular ROS accumulation in human NCI-H460 cells at 2 uM measured after 6 hrs by DCFH-DA dye based fluorescence assay; assay type: functional, cell-based
NCI-H460 [5] = experiment: Induction of ROS accumulation in human NCI-H460 cells assessed as reduction in GSH levels by measuring yellow green fluorescence incubated for 9 hrs by fluorescence microscope based analysis; assay type: functional, cell-based
[6] = target: Thioredoxin reductase (Homo sapiens) (UniProt Q16881+Q9NNW7+Q86VQ6); experiment: Inhibition of TrxR in human NCI-H460 cells at 2 uM measured after 6 hrs by fluorescence microscopy based analysis; assay type: cell-based

SMILES	IC50 (NCI-H460 [1]) [µM]	IC50 (A549) [µM]	IC50 (HepG2) [µM]	IC50 (HT-1080) [µM]	IC50 at 48 h [2] [µM]	selectivity ratio [3]	Activity (NCI-H460 [4])	Activity (NCI-H460 [5])	inhibition [6]
COc1ccc(/C=C2\CCC/C(=C\c3ccc(OC)cc3)C2=O)cc1	> 100	> 100	> 100	> 100	> 100	–	–	–	–
COc1cc(/C=C/C(=O)CC(=O)/C=C/c2ccc(O)c(OC)c2)ccc1O [CURCUMIN]	–	44.8	22.8	21.9	51.2	2.52	inactive	inactive	inactive
CN1C/C(=C\c2ccccc2C(F)(F)F)C(=O)/C(=C/c2ccccc2C(F)(F)F)C1	> 100	> 100	> 100	49.5	> 100	–	–	–	–
CC[C@@]1(O)C(=O)OCc2c1cc1n(c2=O)Cc2cc3ccccc3nc2-1 [CAMPTOTHECIN]	0.79	–	–	–	9.02	11.4	–	–	–
COc1ccc(/C=C2\CN(C)C/C(=C\c3ccc(OC)cc3)C2=O)cc1	> 100	> 100	> 100	> 100	> 100	–	–	–	–
COc1ccc(/C=C2\CNC/C(=C\c3ccc(OC)cc3)C2=O)cc1	> 100	> 100	> 100	> 100	> 100	–	inactive	–	–
COc1ccccc1/C=C1\CNC/C(=C\c2ccccc2OC)C1=O	2.88	3.32	1.93	35.9	3.67	1.27	inactive	–	–
CN1C/C(=C\c2ccc(C(F)(F)F)cc2)C(=O)/C(=C/c2ccc(C(F)(F)F)cc2)C1	2.2	1.58	1.01	2.03	4.76	2.16	–	–	–
O=C1/C(=C/c2ccc(C(F)(F)F)cc2)CCC/C1=C\c1ccc(C(F)(F)F)cc1	14.4	2.97	> 100	7.2	47.7	3.32	–	–	–
COc1ccccc1/C=C1\CN(C)C/C(=C\c2ccccc2OC)C1=O	8.39	6.81	10.7	9.62	17	2.03	–	–	–
O=C1/C(=C/c2ccc(C(F)(F)F)cc2)CNC/C1=C\c1ccc(C(F)(F)F)cc1	7.11	2.02	37.1	5.48	8.65	1.22	inactive	–	–
COc1cccc(/C=C2\CNC/C(=C\c3cccc(OC)c3)C2=O)c1	7.93	14.3	5.19	20	9.11	1.23	inactive	–	–
COc1cccc(/C=C2\CN(C)C/C(=C\c3cccc(OC)c3)C2=O)c1	5.68	1.18	1.36	1.99	13.4	2.37	–	–	–
O=c1[nH]cc(F)c(=O)[nH]1 [FLUOROURACIL]	24.8	–	–	–	246	9.89	–	–	–
O=C1/C(=C/c2ccccc2C(F)(F)F)CNC/C1=C\c1ccccc1C(F)(F)F	> 100	> 100	> 100	> 100	> 100	–	inactive	–	–
CN1C/C(=C\c2ccccc2)C(=O)/C(=C/c2ccccc2)C1	26.9	11.3	10.6	3.82	31.3	1.16	–	–	–
O=C1/C(=C/c2cccc(C(F)(F)F)c2)CCC/C1=C\c1cccc(C(F)(F)F)c1	6.06	3.96	3.54	6.34	21.9	3.62	–	–	–
O=C1/C(=C/c2ccccc2)CCC/C1=C\c1ccccc1 [2,6-DIBENZYLIDENECYCLOHEXANONE]	50.5	26.3	28.5	32.6	> 100	–	–	–	–
CN1C/C(=C\c2cccc(C(F)(F)F)c2)C(=O)/C(=C/c2cccc(C(F)(F)F)c2)C1	2.94	1.08	1.12	3.86	9.25	3.15	–	–	–
O=C1/C(=C/c2ccccc2)CNC/C1=C\c1ccccc1	2.34	7.36	1.38	5.41	4.85	2.07	inactive	inactive	inactive
O=C1/C(=C/c2ccccc2C(F)(F)F)CCC/C1=C\c1ccccc1C(F)(F)F	> 100	> 100	> 100	> 100	> 100	–	–	–	–
COc1ccccc1/C=C1\CCC/C(=C\c2ccccc2OC)C1=O	79.8	66.8	60.1	> 100	> 100	–	–	–	–
COc1cccc(/C=C2\CCC/C(=C\c3cccc(OC)c3)C2=O)c1	16.4	11.6	14	22.2	46	2.81	–	–	–
